In patent US9981909B2 (Janssen Pharmaceutica NV, priority 2008, dated 2018):
Where a name gives a salt, the structure may show the parent alone.

Biological target: rat 5-HT7 receptor (Rattus norvegicus (Rat), UniProt P32305)
Test: r5-HT7 binding assay, competitive radioligand binding with [3H]5-CT
Procedure: Receptor binding was performed using membrane fractions prepared from the HEK-293 cell line recombinantly expressing rat 5-HT7 receptors (NCBI accession NM_022938). Compound affinity for the rat 5-HT7 receptor subtype was evaluated by competitive radioligand binding assays using 5-carboxamido[^3H]tryptamine ([^3H]5-CT) (Amersham Biosciences, cat. 90000403) detection. HitHunter™ cAMP assays are in-vitro based competitive immunoassays. The assay was performed on the HEK-293 cell line stably transfected with r5-HT7 receptor. Cells were pre-incubated with test compounds for 10 minutes. For antagonist testing, the cells were then challenged with 100 nM 5-CT for 20 minutes. Cells were then lysed and cAMP measured according to manufacturers protocol (Amersham, cat. NET791250UC) or [^3H]mesulergine (Amersham, cat. TRK1041). The assay was performed on membranes prepared from HEK-293 cells stably transfected with h5-HT6. Following centrifugation, membranes were resuspended and incubated for 60 min at room temperature with 1.7 nM [^3H]LSD in the presence of increasing concentration of test compounds. Nonspecific binding was defined in the presence of 10 μM clozapine (Tocris, cat. TRK1068). Homogenized HEK-293 membranes expressing the human SERT were incubated in 50 mM Tris-HCl (pH 7.5), 120 mM NaCl, 5 mM KCl with [^3H]-citalopram (3 nM) with or without test compounds. Nonspecific binding was determined in the presence of 10 μM fluoxetine. Radioactivity readouts and Ki values were performed as previously described for r5-HT7. […] Compounds were assayed in their free form or as salts, as indicated in the Examples section above.

[1] = rat 5-HT7 receptor, HEK-293 membranes

Sequence of rat 5-HT7 receptor (P32305 1-435): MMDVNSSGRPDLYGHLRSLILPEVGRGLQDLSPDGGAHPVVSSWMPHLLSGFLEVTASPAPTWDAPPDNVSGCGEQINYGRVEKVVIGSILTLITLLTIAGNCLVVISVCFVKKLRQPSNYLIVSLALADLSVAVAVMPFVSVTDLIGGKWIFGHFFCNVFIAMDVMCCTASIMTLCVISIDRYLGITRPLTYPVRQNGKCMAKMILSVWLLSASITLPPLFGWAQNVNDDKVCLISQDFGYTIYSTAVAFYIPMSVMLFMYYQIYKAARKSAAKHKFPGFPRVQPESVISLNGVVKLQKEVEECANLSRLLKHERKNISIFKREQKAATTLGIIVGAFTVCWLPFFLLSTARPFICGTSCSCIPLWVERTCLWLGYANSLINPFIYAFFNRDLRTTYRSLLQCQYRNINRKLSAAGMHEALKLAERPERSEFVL

Ki [1] | Ki (rat 5-HT7, HEK-293 membranes) | SMILES
1460 nM |  | Fc1cc(Cl)cc(OC2CNC2)c1OCc1ccc(C(F)(F)F)o1 [Example 198, 3-[5-Chloro-3-fluoro-2-(5-trifluoromethyl-furan-2-ylmethoxy)-phenoxy]-azetidine]
66 nM |  | Fc1ccc(OCc2cccc(Cl)c2)c(OC2CNC2)c1 [Example 202, 3-[2-(3-Chloro-benzyloxy)-5-fluoro-phenoxy]-azetidine hydrochloride]
27 nM |  | CC(C)N1CC(Oc2cc(F)ccc2OCc2cccc(Cl)c2)C1 [Example 204, 3-[2-(3-Chloro-benzyloxy)-5-fluoro-phenoxy]-1-isopropyl-azetidine]
27 nM |  | Fc1ccc(OCc2cccc(Cl)c2)c(OC2CN(C3CCC3)C2)c1 [Example 205, 3-[2-(3-Chloro-benzyloxy)-5-fluoro-phenoxy]-1-cyclobutyl-azetidine]
21 nM |  | CCCN1CC(Oc2cc(F)ccc2OCc2cccc(Cl)c2)C1 [Example 206, 3-[2-(3-Chloro-benzyloxy)-5-fluoro-phenoxy]-1-propyl-azetidine]
506 nM |  | Clc1cccc(COc2ccc(-c3ccsc3)cc2OC2CNC2)c1 [Example 210, 3-[2-(3-Chloro-benzyloxy)-5-thiophen-3-yl-phenoxy]-azetidine]
9000 nM |  | CN(C)C(=O)c1ccc(OCc2cccc(Cl)c2)c(OC2CNC2)c1 [Example 211, 3-(Azetidin-3-yloxy)-4-(3-chloro-benzyloxy)-N,N-dimethyl-benzamide]
 | 4590 nM | CCC1(Oc2cc(Br)ccc2OCc2cccc(Cl)c2)CNC1 [Example 213, 3-[5-Bromo-2-(3-chloro-benzyloxy)-phenoxy]-3-ethyl-azetidine]
 | 69 nM | CC1(Oc2cc(Br)ccc2Oc2ccccc2)CNC1 [Example 218, 3-(5-Bromo-2-phenoxy-phenoxy)-3-methyl-azetidine]
 | 68 nM | CC(C)N1CC(Oc2ccc(Cl)cc2OC2CNC2)C1 [Example 224, 3-[5-Chloro-2-(1-Isopropyl-azetidin-3-ol)-phenoxy]-azetidine]
 | 2670 nM | Clc1ccc(OC2CN(C(c3ccccc3)c3ccccc3)C2)c(OC2CNC2)c1 [Example 225, 3-[5-Chloro-2-(1-benzhydryl-azetidin-3-ol)-phenoxy]-azetidine]
 | 840 nM | Clc1ccc(OC2CNC2)c(OC2CNC2)c1 [Example 226]
 | 336 nM | CC(C)N1CC(Oc2ccc(Cl)cc2OC2CN(C(C)C)C2)C1 [Example 227, 3-[5-Chloro-2-(1-Isopropyl-azetidin-3-ol)-phenoxy]-1-isopropyl-azetidine]
 | 130 nM | CN1CC(COc2cc(Br)ccc2OCc2cccc(Cl)c2)C1 [Example 234, 3-[5-Bromo-2-(3-chloro-benzyloxy)-phenoxymethyl]-1-methyl-azetidine]
 | 665 nM | OC1(COc2cc(Br)ccc2OCc2cccc(Cl)c2)CNC1 [Example 235, 3-[5-Bromo-2-(3-chloro-benzyloxy)-phenoxymethyl]-azetidin-3-ol]
 | 831 nM | CC(Oc1cc(Br)ccc1OCc1cccc(Cl)c1)C1(O)CNC1 (centres unmarked) [Example 236, 3-[1-[5-Bromo-2-(3-chloro-benzyloxy)-phenoxy]-ethyl]-azetidin-3-ol]
 | 120 nM | Clc1cccc(COc2ccc(Br)cc2COC2CNC2)c1 [Example 237, 3-[5-Bromo-2-(3-chloro-benzyloxy)-benzyloxy]-azetidine]
 | 200 nM | Clc1cccc(COc2ccc(Cl)cc2COC2CNC2)c1 [Example 238, 3-[5-Chloro-2-(3-chloro-benzyloxy)-benzyloxy]-azetidine]
 | 233 nM | Cc1noc(COc2ccc(Cl)cc2OC2CNC2)n1 [Example 239, 5-[2-(Azetidin-3-yloxy)-4-chloro-phenoxymethyl]-3-methyl-[1,2,4]oxadiazole]
 | 252 nM | Clc1ccc(OCc2nc(C3CCC3)no2)c(OC2CNC2)c1 [Example 240, 5-[2-(Azetidin-3-yloxy)-4-chloro-phenoxymethyl]-3-cyclobutyl-[1,2,4]oxadiazole]
 | 263 nM | Clc1ccc(OCc2nc(C3CC3)no2)c(OC2CNC2)c1 [Example 241, 5-[2-(Azetidin-3-yloxy)-4-chloro-phenoxymethyl]-3-cyclopropyl-[1,2,4]oxadiazole hydrochloride]
 | 461 nM | CCc1noc(COc2ccc(Cl)cc2OC2CNC2)n1 [Example 243, 5-[2-(Azetidin-3-yloxy)-4-chloro-phenoxymethyl]-3-ethyl-[1,2,4]oxadiazole hydrochloride]

Ki [1] | Ki (rat 5-HT7, HEK-293 membranes) | SMILES
 | 43 nM | COc1cccc(Oc2ccc(Br)cc2OC2CNC2)c1 [Example 248, 3-[5-Bromo-2-(3-methoxy-phenoxy)-phenoxy]-azetidine]
 | 20 nM | Fc1ccc(Oc2ccc(Br)cc2OC2CNC2)cc1 [Example 249, 3-[5-Bromo-2-(4-fluoro-phenoxy)-phenoxy]-azetidine]
 | 17 nM | Brc1ccc(Oc2ccc(Br)cc2OC2CNC2)cc1 [Example 250, 3-[5-Bromo-2-(4-bromo-phenoxy)-phenoxy]-azetidine]
 | 19 nM | Brc1ccc(Oc2ccc3ccccc3c2)c(OC2CNC2)c1 [Example 254, 3-[5-Bromo-2-(naphthalen-2-yloxy)-phenoxy]-azetidine]
 | 196 nM | Brc1ccc(Oc2cccc3ccccc23)c(OC2CNC2)c1 [Example 255, 3-[5-Bromo-2-(naphthalen-1-yloxy)-phenoxy]-azetidine]
 | 160 nM | Clc1ccc(Oc2ccccc2)c(OC2CNC2)c1 [Example 256, 3-(5-Chloro-2-phenoxy-phenoxy)-azetidine]
 | 1600 nM | Clc1ccc(Oc2nc3ccccc3s2)c(OC2CNC2)c1 [Example 261, 2-[2-(Azetidin-3-yloxy)-4-chloro-phenoxy]-benzothiazole]
 | 544 nM | Clc1ccc(Oc2ccc3cccnc3n2)c(OC2CNC2)c1 [Example 263, 2-[2-(Azetidin-3-yloxy)-4-chloro-phenoxy]-[1,8]naphthyridine]
 | 130 nM | Clc1ccc(Oc2ccccc2)c(OC2CCNCC2)c1 [Example 265, 4-(5-Chloro-2-phenoxy-phenoxy)-piperidine]
 | 98 nM | O=C(c1ccccc1)c1ccc(Br)cc1OC1CNC1 [Example 280]
 | 50 nM | CN1CC(Oc2cc(Br)ccc2C(=O)c2cccc(Cl)c2)C1 [Example 283, [4-Bromo-2-(1-methyl-azetidin-3-yloxy)-phenyl]-(3-chloro-phenyl)-methanone]
 | 19 nM | Cc1cccc(C(=O)c2ccc(Br)cc2OC2CNC2)c1 [Example 284, [2-(Azetidin-3-yloxy)-4-bromo-phenyl]-m-tolyl-methanone]
 | 3000 nM | Cc1ccccc1C(=O)c1ccc(Br)cc1OC1CNC1 [Example 285, [2-(Azetidin-3-yloxy)-4-bromo-phenyl]-o-tolyl-methanone]
 | 39 nM | COc1cccc(C(=O)c2ccc(Br)cc2OC2CNC2)c1 [Example 286, [2-(Azetidin-3-yloxy)-4-bromo-phenyl]-(3-methoxy-phenyl)-methanone]
 | 59 nM | CC(C)N1CC(Oc2cc(Br)ccc2C(=O)c2ccc3ccccc3c2)C1 [Example 288, [4-Bromo-2-(1-isopropyl-azetidin-3-yloxy)-phenyl]-naphthalen-2-yl-methanone]
 | 143 nM | CC(C)N1CC(Oc2cc(Br)ccc2C(=O)c2ccc3c(c2)OCO3)C1 [Example 290, Benzo[1,3]dioxol-5-yl-[4-bromo-2-(1-isopropyl-azetidin-3-yloxy)-phenyl]-methanone]
 | 34 nM | COc1ccc(C(=O)c2ccc(Br)cc2OC2CNC2)cc1 [Example 291, [2-(Azetidin-3-yloxy)-4-bromo-phenyl]-(4-methoxy-phenyl)-methanone]
 | 74 nM | O=C(c1ccc(Cl)c(F)c1)c1ccc(Br)cc1OC1CNC1 [Example 292, [2-(Azetidin-3-yloxy)-4-bromo-phenyl]-(4-chloro-3-fluoro-phenyl)-methanone]
 | 51 nM | O=C(c1ccc(Cl)c(Cl)c1)c1ccc(Br)cc1OC1CNC1 [Example 293, [2-(Azetidin-3-yloxy)-4-bromo-phenyl]-(3,4-dichloro-phenyl)-methanone]
 | 72 nM | O=C(c1ccc2ccccc2c1)c1ccc(Cl)cc1OC1CNC1 [Example 294, [2-(Azetidin-3-yloxy)-4-chloro-phenyl]-naphthalen-2-yl-methanone]
 | 226 nM | O=C(c1ccc2c(c1)OCO2)c1ccc(Cl)cc1OC1CNC1 [Example 295, [2-(Azetidin-3-yloxy)-4-chloro-phenyl]-benzo[1,3]dioxol-5-yl-methanone]
 | 181 nM | CC(C)N1CC(Oc2cc(Cl)ccc2C(=O)c2ccc3c(c2)OCO3)C1 [Example 296, Benzo[1,3]dioxol-5-yl-[4-chloro-2-(1-isopropyl-azetidin-3-yloxy)-phenyl]-methanone]

SMILES | Ki [1] | Ki (rat 5-HT7, HEK-293 membranes)
CC1(Oc2cc(Br)ccc2OCc2cccc(C(F)(F)F)c2)CNC1 [Example 217] |  | 34 nM
CC(C)c1noc(COc2ccc(Cl)cc2OC2CNC2)n1 [Example 242, 5-[2-(Azetidin-3-yloxy)-4-chloro-phenoxymethyl]-3-isopropyl-[1,2,4]oxadiazole hydrochloride] |  | 273 nM
Cc1ccccc1Oc1ccc(Cl)cc1OC1CNC1 [Example 259, 3-(5-Chloro-2-o-tolyloxy-phenoxy)-azetidine trifluoroacetate] |  | 460 nM
